{
  "source": "patent US11819503B2",
  "about": "(priority 2019, dated 2023)",
  "key": {"[1]": {"tested_on": "All Coccidioides isolates (n = 59)", "test": "microbe, parasite or virus in culture", "format": "cell-based, Coccidioides species", "conditions": "for MIC: read-out: GM MIC"}, "[2]": {"tested_on": "Coccidioides immitis (n = 21)", "test": "microbe, parasite or virus in culture", "format": "cell-based", "conditions": "for MIC50 / MIC90 / MIC: Coccidioides immitis; for MIC: read-out: GM MIC"}, "[3]": {"tested_on": "Coccidioides posadasii (n = 24)", "test": "microbe, parasite or virus in culture", "format": "cell-based", "conditions": "for MIC50 / MIC90 / MIC: Coccidioides posadasii; for MIC: read-out: GM MIC"}, "[4]": {"tested_on": "C. immitis (isolate UTHSCSA DI17-143)", "test": "microbe, parasite or virus in culture", "format": "cell-based", "conditions": "Coccidioides immitis"}, "C. immitis [5]": {"tested_on": "C. immitis", "parameters": "species or system ICR mice", "conditions": "mouse, in vivo"}, "C. immitis [6]": {"tested_on": "C. immitis", "parameters": "species or system ICR mice", "conditions": "mouse, in vivo", "remark": "listed apart in the source"}, "C. immitis [7]": {"tested_on": "C. immitis", "parameters": "species or system ICR mice", "conditions": "mouse, in vivo", "remark": "listed apart in the source"}, "coccidioidomycosis": {"tested_on": "coccidioidomycosis", "conditions": "human, in vivo"}, "[8]": {"conditions": "mouse, in vivo, po"}, "[9]": {"target": "recombinant human enzyme (dihydroorotate dehydrogenase) (Homo sapiens, UniProt Q02127)", "sequence (Q02127 whole entry)": "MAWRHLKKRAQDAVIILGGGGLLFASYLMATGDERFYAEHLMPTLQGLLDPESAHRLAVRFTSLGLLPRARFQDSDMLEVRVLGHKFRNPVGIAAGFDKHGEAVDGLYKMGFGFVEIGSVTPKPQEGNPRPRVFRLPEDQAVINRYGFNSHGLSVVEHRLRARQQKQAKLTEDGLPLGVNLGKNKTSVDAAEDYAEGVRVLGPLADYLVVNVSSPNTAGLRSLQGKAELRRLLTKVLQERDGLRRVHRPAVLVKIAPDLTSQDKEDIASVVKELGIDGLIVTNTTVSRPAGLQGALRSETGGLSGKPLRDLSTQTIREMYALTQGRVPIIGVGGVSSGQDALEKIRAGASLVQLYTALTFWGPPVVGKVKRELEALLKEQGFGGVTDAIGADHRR", "conditions": "cited from earlier work"}, "[10]": {"tested_on": "dihydroorotate dehydrogenase in yeast, including Candida and Cryptococcus species", "conditions": "cited from earlier work"}, "in vivo": {"test": "in vivo", "conditions": "mouse; for AUC(0-t): AUC 0-12"}},
  "note": "“And” between values parts separate entries of the source, which are not always exact repeats. Equal values may be shown once. “Also recorded” adds a separate entry of the source.",
  "data": [
    {"smiles": "Cc1cc(-c2ccccc2)c(C(=O)C(=O)Nc2ccc(N3CCN(c4ncc(F)cn4)CC3)cc2)n1C", "note": "[olorofim, 2-(1,5-dimethyl-3-phenyl-1H-pyrrol-2-yl)-N-(4-(4-(5-fluoropyrimidin-2-yl)piperazin-1-yl)phenyl)-2-oxoacetamide]", "values": [
      {"measurement": "MIC50", "setting": "[1]", "value": "≤ 0.008", "unit": "µg/mL"},
      {"measurement": "MIC90", "setting": "[1]", "value": 0.015, "unit": "µg/mL"},
      {"measurement": "MIC", "setting": "[1]", "value": 0.011, "unit": "µg/mL"},
      {"measurement": "MIC range", "setting": "[2]", "value": "≤0.008 to 0.015", "unit": "µg/mL"},
      {"measurement": "MIC50", "setting": "[2]", "value": "≤ 0.008", "unit": "µg/mL"},
      {"measurement": "MIC90", "setting": "[2]", "value": 0.015, "unit": "µg/mL"},
      {"measurement": "MIC", "setting": "[2]", "value": 0.009, "unit": "µg/mL"},
      {"measurement": "MIC range", "setting": "[3]", "value": "≤0.008 to 0.015", "unit": "µg/mL"},
      {"measurement": "MIC50", "setting": "[3]", "value": "≤ 0.008", "unit": "µg/mL"},
      {"measurement": "MIC90", "setting": "[3]", "value": 0.015, "unit": "µg/mL"},
      {"measurement": "MIC", "setting": "[3]", "value": 0.009, "unit": "µg/mL"},
      {"measurement": "MIC", "setting": "[4]", "value": 0.015, "unit": "µg/mL"},
      {"measurement": "day on which mice began to succumb to infection", "setting": "C. immitis [5]", "value": 18, "unit": "days"},
      {"measurement": "median survival time", "setting": "C. immitis [5]", "value": "22 days and 26 days and 23.5 days and > 30 days"},
      {"measurement": "percentage of mice that survived to the study endpoint", "setting": "C. immitis [5]", "value": 80, "unit": "%"},
      {"measurement": "brain fungal burden (mean CFU count)", "setting": "C. immitis [6]", "value": "4.36 log 10 CFU/g and 3.41 log 10 CFU/g"},
      {"measurement": "fungal burdens, three times daily compared to twice daily administration", "setting": "C. immitis [6]", "value": "further reductions in fungal burdens"},
      {"measurement": "mice with no fungal colonies in plated whole-brain homogenates", "setting": "C. immitis [7]", "value": "7 of the 10 and 7 of 10"},
      {"measurement": "clinical status at 3 months", "setting": "coccidioidomycosis", "value": "no longer required the use of oxygen and was able to walk unaided"},
      {"measurement": "clinical status at 6 months", "setting": "coccidioidomycosis", "value": "continues to be asymptomatic 6 months after initiation of olorofim therapy"},
      {"measurement": "symptomatic response", "setting": "coccidioidomycosis", "value": "symptomatic improvements within a few weeks; also recorded: symptomatic improvement within three weeks"},
      {"measurement": "time to symptomatic improvement", "setting": "coccidioidomycosis", "value": "≤ 4", "unit": "weeks"},
      {"measurement": "Levels in brain compared with plasma", "setting": "[8]", "value": "slightly lower than those in plasma"},
      {"measurement": "Levels in lung compared with plasma", "setting": "[8]", "value": "slightly higher"},
      {"measurement": "exposure in females compared with males", "setting": "[8]", "value": "slightly higher in females"},
      {"measurement": "inhibition of dihydroorotate dehydrogenase", "setting": "[9]", "value": "little to no inhibition"},
      {"measurement": "inhibition of dihydroorotate dehydrogenase", "setting": "[10]", "value": "little to no inhibition"},
      {"measurement": "Tmax", "setting": "in vivo; both, Plasma Tmax", "value": "≤ 1", "unit": "h"},
      {"measurement": "AUC(0-t)", "setting": "in vivo; female, po, 10 mg/kg", "value": 11400, "unit": "ng·h/mL"},
      {"measurement": "Tmax", "setting": "in vivo; female, po, 10 mg/kg, Tmax", "value": 1, "unit": "h"},
      {"measurement": "AUC(0-t)", "setting": "in vivo; female, po, 20 mg/kg", "value": 26600, "unit": "ng·h/mL"},
      {"measurement": "Cmax", "setting": "in vivo; female, po, 20 mg/kg", "value": 4610, "unit": "ng/mL"},
      {"measurement": "AUC(0-t)", "setting": "in vivo; female, po, 30 mg/kg", "value": 30800, "unit": "ng·h/mL"},
      {"measurement": "Cmax", "setting": "in vivo; female, po, 30 mg/kg", "value": 4110, "unit": "ng/mL"},
      {"measurement": "Tmax", "setting": "in vivo; female, po, 30 mg/kg, Tmax", "value": 1, "unit": "h"},
      {"measurement": "AUC(0-t)", "setting": "in vivo; male, po, 10 mg/kg", "value": 8700, "unit": "ng·h/mL"},
      {"measurement": "Tmax", "setting": "in vivo; male, po, 10 mg/kg, Tmax", "value": 0.5, "unit": "h"},
      {"measurement": "AUC(0-t)", "setting": "in vivo; male, po, 20 mg/kg", "value": 22100, "unit": "ng·h/mL"},
      {"measurement": "Cmax", "setting": "in vivo; male, po, 20 mg/kg", "value": 3910, "unit": "ng/mL"},
      {"measurement": "Tmax", "setting": "in vivo; male, po, 20 mg/kg, Tmax", "value": 1, "unit": "h"},
      {"measurement": "AUC(0-t)", "setting": "in vivo; male, po, 30 mg/kg", "value": 27700, "unit": "ng·h/mL"},
      {"measurement": "Cmax", "setting": "in vivo; male, po, 30 mg/kg", "value": 4110, "unit": "ng/mL"},
      {"measurement": "Tmax", "setting": "in vivo; male, po, 30 mg/kg, Tmax", "value": 1, "unit": "h"},
      {"measurement": "half-life", "setting": "in vivo", "value": "~2", "unit": "h"}
    ]},
    {"smiles": "OC(Cn1cncn1)(Cn1cncn1)c1ccc(F)cc1F", "note": "[fluconazole, reference compound]", "values": [
      {"measurement": "MIC", "setting": "[4]", "value": 16, "unit": "µg/mL"},
      {"measurement": "median survival time", "setting": "C. immitis [5]", "value": "30 days and 28 days"},
      {"measurement": "brain fungal burden (mean of combined results)", "setting": "C. immitis [6]", "value": 1.33, "unit": "log 10 CFU/g"},
      {"measurement": "rebound in fungal burdens once therapy was stopped", "setting": "C. immitis [7]", "value": "rebound in fungal burdens"}
    ]},
    {"smiles": "C[C@@H](c1ncncc1F)[C@](O)(Cn1cncn1)c1ccc(F)cc1F", "note": "[voriconazole, reference compound]", "values": [
      {"measurement": "MIC50", "setting": "[1]", "value": 0.125, "unit": "µg/mL"},
      {"measurement": "MIC90", "setting": "[1]", "value": 0.25, "unit": "µg/mL"},
      {"measurement": "MIC", "setting": "[1]", "value": 0.113, "unit": "µg/mL"},
      {"measurement": "MIC range", "setting": "[2]", "value": "≤0.03 to 0.25", "unit": "µg/mL"},
      {"measurement": "MIC50", "setting": "[2]", "value": 0.06, "unit": "µg/mL"},
      {"measurement": "MIC90", "setting": "[2]", "value": 0.125, "unit": "µg/mL"},
      {"measurement": "MIC", "setting": "[2]", "value": 0.072, "unit": "µg/mL"},
      {"measurement": "MIC range", "setting": "[3]", "value": "≤0.03 to 0.25", "unit": "µg/mL"},
      {"measurement": "MIC50", "setting": "[3]", "value": 0.125, "unit": "µg/mL"},
      {"measurement": "MIC90", "setting": "[3]", "value": 0.125, "unit": "µg/mL"},
      {"measurement": "MIC", "setting": "[3]", "value": 0.103, "unit": "µg/mL"},
      {"measurement": "MIC", "setting": "[4]", "value": 0.125, "unit": "µg/mL"}
    ]}
  ]
}
